Patent US10294202B2, “Pyrrolidinones as herbicides” (FMC Corporation, priority 2013, dated 2019)

Assays:
blackgrass [1] = experiment: Test A postemergence herbicide test; format: in vivo, Alopecurus myosuroides
Procedure, shortened: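 Young potted plants in a loam–sand mix, one- to two-leaf stage and 2–10 cm tall, receive the test chemical postemergence and stay in a greenhouse for approximately 10 days. Injury is then judged by eye against untreated plants, scored 0 (none) to 100 (complete control).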

blackgrass [2] = experiment: Test C pre-/postemergence herbicide test; format: in vivo, Alopecurus myosuroides
Procedure, shortened: (§1)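 Herbicidal effect was judged by eye 13 to 15 days after treatment in the greenhouse, using a 0–100 scale against controls. Chemicals in a non-phytotoxic solvent with surfactant were sprayed onto planted loam/sand soil or onto plants 2 to 18 cm tall in a peat-based growing medium.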

galium = experiment: Test C pre-/postemergence herbicide test; format: in vivo, Galium aparine; conditions: Preemergence; for Plant response rating, Galium: 125 g ai/ha; for Plant response rating (scale of 0 to 100), Galium: 250 g ai/ha
Procedure, shortened: as §1

foxtail, giant = experiment: Test C pre-/postemergence herbicide test; format: in vivo, Setaria faberii
Procedure, shortened: as §1

barnyardgrass = experiment: Test C pre-/postemergence herbicide test; format: in vivo, Echinochloa crus-galli
Procedure, shortened: as §1

velvetleaf = experiment: Test C pre-/postemergence herbicide test; format: in vivo, Abutilon theophrasti
Procedure, shortened: as §1

rice = experiment: Test C flooded paddy test; format: in vivo, Oryza sativa; conditions: Flood, scale of 0 to 100 where 0 is no effect and 100 is complete control, 13 to 15 days
Procedure, shortened: (§2)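 Visual ratings from 0, no effect, to 100, complete control, were made against untreated controls after 13–15 greenhouse days. Compounds had gone straight into paddy water 3 cm above the soil, kept at that depth, on 2-leaf-stage plants.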

sedge, umbrella = experiment: Test C flooded paddy test; format: in vivo, Cyperus difformis; conditions: Flood, scale of 0 to 100 where 0 is no effect and 100 is complete control, 13 to 15 days
Procedure, shortened: as §2

[3] = 125 g ai/ha, visual rating on 0 to 100 scale (0 no effect, 100 complete control), approx. 10 days
[4] = 500 g ai/ha, 0 to 100 scale (0 no effect, 100 complete control)
[5] = Postemergence, 31 g ai/ha, scale 0 to 100 (0 no effect, 100 complete control)
[6] = Postemergence, 62 g ai/ha, scale 0 (no effect) to 100 (complete control)
[7] = Postemergence, 125 g ai/ha, scale 0 to 100 (0 no effect, 100 complete control)
[8] = Postemergence, 250 g ai/ha, scale 0 to 100 (0 no effect, 100 complete control)
[9] = Preemergence, 31 g ai/ha, scale 0 to 100, 0 is no effect and 100 is complete control
[10] = Preemergence, 62 g ai/ha, scale 0 to 100 (0 no effect, 100 complete control)
[11] = Preemergence, 125 g ai/ha, scale 0 to 100 (0 no effect, 100 complete control)
[12] = 31 g ai/ha, scale 0 to 100, 0 is no effect and 100 is complete control
[13] = 62 g ai/ha, scale 0 to 100 (0 no effect, 100 complete control)
[14] = Preemergence, 125 g ai/ha, scale 0 to 100

SMILES: CN1CC(c2ccc(F)c(F)c2)C(C(=O)Nc2cccc(F)c2F)C1=O (stereo not drawn) [Compound 303]
- Plant response rating, Blackgrass (blackgrass [1]; [3]): 60
- Plant response rating, Blackgrass (blackgrass [1]; [4]): 70
- Plant response rating, Blackgrass (blackgrass [2]; [5]): 0
- Plant response rating, Blackgrass (blackgrass [2]; [6]): 0
- Plant response rating, Blackgrass (blackgrass [2]; [7]): 0
- Plant response rating, Blackgrass (blackgrass [2]; [8]): 0
- Blackgrass plant response rating (blackgrass [2]; [9]): 0
- Blackgrass plant response rating (blackgrass [2]; [10]): 40
- Plant response rating, Blackgrass (blackgrass [2]; [11]): 80
- Plant response rating (scale of 0 to 100), Blackgrass (blackgrass [2]; Preemergence, 250 g ai/ha): 90
- Galium plant response rating (galium; [12]): 90
- Galium plant response rating (galium; [13]): 0
- Plant response rating, Galium (galium; scale 0 to 100 (0 no effect, 100 complete control)): 85
- Plant response rating (scale of 0 to 100), Galium (galium): 85
- Plant response rating, Foxtail, Giant (foxtail, giant; [6]): 80
- Plant response rating, Foxtail, Giant (foxtail, giant; [7]): 85
- Plant response rating, Foxtail, Giant (foxtail, giant; [8]): 90
- Foxtail, Giant plant response rating (foxtail, giant; [9]): 90
- Foxtail, Giant plant response rating (foxtail, giant; [10]): 95
- Plant response rating, Foxtail, Giant (foxtail, giant; [11]): 98
- Plant response rating (scale of 0 to 100), Foxtail, Giant (foxtail, giant; Preemergence, 250 g ai/ha): 100
- Plant response rating, Barnyardgrass (barnyardgrass; [5]): 10
- Plant response rating, Barnyardgrass (barnyardgrass; [6]): 60
- Plant response rating, Barnyardgrass (barnyardgrass; [7]): 70
- Plant response rating, Barnyardgrass (barnyardgrass; [8]): 70
- Barnyardgrass plant response rating (barnyardgrass; [9]): 90
- Barnyardgrass plant response rating (barnyardgrass; [10]): 95
- Plant response rating, Barnyardgrass (barnyardgrass; [11]): 95
- Plant response rating (scale of 0 to 100; 0 is no effect, 100 is complete control), Barnyardgrass (barnyardgrass; Preemergence, 250 g ai/ha): 98
- Plant response rating, Velvetleaf (velvetleaf; [5]): 35
- Plant response rating, Velvetleaf (velvetleaf; [6]): 0
- Plant response rating, Velvetleaf (velvetleaf; [7]): 25
- Plant response rating, Velvetleaf (velvetleaf; [8]): 35
- Velvetleaf plant response rating (velvetleaf; [9]): 10
- Velvetleaf plant response rating (velvetleaf; [10]): 25
- Plant response rating, Velvetleaf (velvetleaf; [11]): 50
- Plant response rating (scale of 0 to 100), Velvetleaf (velvetleaf; Preemergence, 250 g ai/ha): 55
- Plant response rating, Rice (rice; 31 g ai/ha): 0
- Plant response rating, Rice (rice; 62 g ai/ha): 0
- Plant response rating, Rice (rice; 125 g ai/ha): 0
- Plant response rating, Rice (rice; 250 g ai/ha): 0
- Plant response rating, Sedge, Umbrella (sedge, umbrella; 31 g ai/ha): 0
- Plant response rating, Sedge, Umbrella (sedge, umbrella; 62 g ai/ha): 0
- Plant response rating, Sedge, Umbrella (sedge, umbrella; 125 g ai/ha): 0
- Plant response rating, Sedge, Umbrella (sedge, umbrella; 250 g ai/ha): 0

SMILES: CC(C)c1cccc(C2CNC(=O)C2C(=O)Nc2ccccc2F)c1 (stereo not drawn) [Compound 318]
- Plant response rating, Blackgrass (blackgrass [1]; [3]): 30
- Plant response rating, Blackgrass (blackgrass [1]; [4]): 40
- Blackgrass plant response rating (blackgrass [2]; [9]): 0
- Blackgrass plant response rating (blackgrass [2]; [10]): 0
- Plant response rating, Blackgrass (blackgrass [2]; [14]): 30
- Plant response rating (scale of 0 to 100), Blackgrass (blackgrass [2]; Preemergence, 250 g ai/ha): 45
- Galium plant response rating (galium; [12]): 0
- Galium plant response rating (galium; [13]): 0
- Plant response rating, Galium (galium; scale 0 to 100): 40
- Plant response rating (scale of 0 to 100), Galium (galium): 100
- Foxtail, Giant plant response rating (foxtail, giant; [9]): 10
- Foxtail, Giant plant response rating (foxtail, giant; [10]): 70
- Plant response rating, Foxtail, Giant (foxtail, giant; [14]): 75
- Plant response rating (scale of 0 to 100), Foxtail, Giant (foxtail, giant; Preemergence, 250 g ai/ha): 90
- Barnyardgrass plant response rating (barnyardgrass; [9]): 80
- Barnyardgrass plant response rating (barnyardgrass; [10]): 95
- Plant response rating, Barnyardgrass (barnyardgrass; [11]): 95
- Plant response rating (scale of 0 to 100; 0 is no effect, 100 is complete control), Barnyardgrass (barnyardgrass; Preemergence, 250 g ai/ha): 95
- Velvetleaf plant response rating (velvetleaf; [10]): 10
- Plant response rating, Velvetleaf (velvetleaf; [14]): 25
- Plant response rating, Rice (rice; 31 g ai/ha): 0
- Plant response rating, Rice (rice; 62 g ai/ha): 0
- Plant response rating, Rice (rice; 125 g ai/ha): 10
- Plant response rating, Rice (rice; 250 g ai/ha): 15
- Plant response rating, Sedge, Umbrella (sedge, umbrella; 31 g ai/ha): 0
- Plant response rating, Sedge, Umbrella (sedge, umbrella; 62 g ai/ha): 0
- Plant response rating, Sedge, Umbrella (sedge, umbrella; 125 g ai/ha): 0
- Plant response rating, Sedge, Umbrella (sedge, umbrella; 250 g ai/ha): 0

SMILES: O=C1NCC(c2cccc(OC(F)F)c2)C1C(=O)Nc1ccccc1F (stereo not drawn) [Compound 323]
- Plant response rating, Blackgrass (blackgrass [1]; [3]): 40
- Plant response rating, Blackgrass (blackgrass [1]; [4]): 60
- Plant response rating, Blackgrass (blackgrass [2]; [5]): 0
- Plant response rating, Blackgrass (blackgrass [2]; [6]): 0
- Plant response rating, Blackgrass (blackgrass [2]; [7]): 0
- Plant response rating, Blackgrass (blackgrass [2]; [8]): 15
- Blackgrass plant response rating (blackgrass [2]; [9]): 0
- Blackgrass plant response rating (blackgrass [2]; [10]): 0
- Plant response rating, Blackgrass (blackgrass [2]; [14]): 45
- Plant response rating (scale of 0 to 100), Blackgrass (blackgrass [2]; Preemergence, 250 g ai/ha): 85
- Galium plant response rating (galium; [12]): 0
- Galium plant response rating (galium; [13]): 0
- Plant response rating, Galium (galium; scale 0 to 100): 85
- Plant response rating (scale of 0 to 100), Galium (galium): 85
- Plant response rating, Foxtail, Giant (foxtail, giant; [5]): 0
- Plant response rating, Foxtail, Giant (foxtail, giant; [6]): 0
- Plant response rating, Foxtail, Giant (foxtail, giant; [7]): 35
- Plant response rating, Foxtail, Giant (foxtail, giant; [8]): 70
- Foxtail, Giant plant response rating (foxtail, giant; [9]): 90
- Foxtail, Giant plant response rating (foxtail, giant; [10]): 95
- Plant response rating, Foxtail, Giant (foxtail, giant; [14]): 95
- Plant response rating (scale of 0 to 100), Foxtail, Giant (foxtail, giant; Preemergence, 250 g ai/ha): 98
- Plant response rating, Barnyardgrass (barnyardgrass; [5]): 0
- Plant response rating, Barnyardgrass (barnyardgrass; [6]): 10
- Plant response rating, Barnyardgrass (barnyardgrass; [7]): 35
- Plant response rating, Barnyardgrass (barnyardgrass; [8]): 70
- Barnyardgrass plant response rating (barnyardgrass; [9]): 80
- Barnyardgrass plant response rating (barnyardgrass; [10]): 85
- Plant response rating, Barnyardgrass (barnyardgrass; [11]): 98
- Plant response rating (scale of 0 to 100; 0 is no effect, 100 is complete control), Barnyardgrass (barnyardgrass; Preemergence, 250 g ai/ha): 98
- Plant response rating, Velvetleaf (velvetleaf; [5]): 0
- Plant response rating, Velvetleaf (velvetleaf; [6]): 20
- Plant response rating, Velvetleaf (velvetleaf; [7]): 0
- Plant response rating, Velvetleaf (velvetleaf; [8]): 0
- Velvetleaf plant response rating (velvetleaf; [10]): 15
- Plant response rating, Velvetleaf (velvetleaf; [14]): 40
- Plant response rating, Rice (rice; 31 g ai/ha): 0
- Plant response rating, Rice (rice; 62 g ai/ha): 0
- Plant response rating, Rice (rice; 125 g ai/ha): 0
- Plant response rating, Rice (rice; 250 g ai/ha): 30
- Plant response rating, Sedge, Umbrella (sedge, umbrella; 31 g ai/ha): 0
- Plant response rating, Sedge, Umbrella (sedge, umbrella; 62 g ai/ha): 0
- Plant response rating, Sedge, Umbrella (sedge, umbrella; 125 g ai/ha): 0
- Plant response rating, Sedge, Umbrella (sedge, umbrella; 250 g ai/ha): 0
